Measured values published in PubChem BioAssay (NCI).
Values joined by “and” are separate entries in the source; they are usually repeats but may differ in a detail not shown here. Identical values can stand only once.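 Results reflect a 48-hour exposure of cells in 96-well plates to compound at five concentrations. GI50: concentration for 50% inhibition of growth. TGI is the concentration that stops growth completely.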 Where a SMILES comes first, the peptide text is derived from it. [ ]: non-standard residue; d: D form. Phe(ol) = N[C@H](CO)Cc1ccccc1; Aib = CC(C)(N)C(=O)O

What follows are compounds tested on MDA-MB-468 breast (assay: growth of human tumour cells (NCI), 48 h).

| Compound | GI50 | TGI |
| --- | --- | --- |
| COC(=O)[C@]12CC[C@@H](C)[C@H](C)[C@@H]1C1=CC[C@@H]3[C@@]4(C)C[C@@H](OC(C)=O)[C@H](OC(C)=O)[C@@](C)(COC(C)=O)[C@@H]4[C@H](O)C[C@@]3(C)[C@]1(C)CC2 | 0.832 µM | 46 µM |
| CCCCCn1sc(=O)n(Cc2ccc(CNC(=O)C(C)c3ccc(CC(C)C)cc3)cc2)c1=O (configuration not stated) | 0.945 µM | 2.45 µM |
| O=C1c2ccc3c4c(ccc(c24)C(=O)N1CCCCO)C(=O)N(CCCCO)C3=O | 1.21 µM | 3.22 µM |
| COc1cc(F)c(F)c(Nc2ccc(I)cc2F)c1NS(=O)(=O)C1(CC(O)CO)CC1 (configuration not stated) | 14.4 µM | 47.7 µM |
| Oc1ccccc1/C=N\NC(=S)Nc1ccc(F)cc1 | 2.53 µM | 26.5 µM |
| COc1ccc(/C=C\c2cc(OC)c(OC)c(OC)c2)cc1NC(=O)/C=C/c1cc(OC)c(OC)c(OC)c1 | 1.82 µM | 6.66 µM |
| CO/N=C1\CCc2c(sc(NC(=O)c3cccc(C(F)(F)F)c3)c2C(N)=O)C1 | 1.5 µM | 5.91 µM |
| COc1cc(C(=O)/C=C/c2c[nH]c3ccccc23)cc(OC)c1OC | 0.0857 µM | 1.61 µM |
| Cc1ccc(C)c(N2CCN(c3ccncc3N)CC2)c1 | 3.4 µM | 18 µM |
| NS(=O)(=O)c1cccc(Nc2cc(-c3ccc(F)cc3)[nH]n2)c1 | > 23.6 µM | > 25 µM |
| COc1cccc(/C=C\C(=O)c2ccccc2)c1 | 2.14 µM | 6.49 µM |
| O=C1c2ccccc2-c2cn(Cc3ccccc3)c3cccc(c23)C1c1cccnc1 (configuration not stated) | 2 µM | 37.6 µM |
| COc1cc(/C=N/NC(=O)c2cnn3c2NC(c2ccccc2)C3)ccc1OCc1ccccc1 (configuration not stated) | 0.318 µM | 2.16 µM |
| COc1ccc([C@@H]2[C@@H](Cl)C(=O)N2c2cc(OC)c(OC)c(OC)c2)cc1C | 0.0414 µM | > 100 µM |
| O=C(NOCCO)c1ccc2cncn2c1Nc1ccc(I)cc1F | > 10 µM and 22.3 µM | > 100 µM |
| CCNC(=O)N1CCc2cc(OC)c(OCCc3ccc(OC)cc3)cc2C1c1ccc([N+](=O)[O-])cc1C (configuration not stated) | 1.37 µM | 4.78 µM |
| N#Cc1cnn(C(=O)c2nn(-c3ccc(Cl)cc3)cc2O)c1N | 0.948 µM | 15.1 µM |
| C#Cc1nc(C2=C(C)/C(=N/OCc3ccccc3)CC2)cs1 | 17.8 µM | 94.7 µM |
| COC(=O)c1sc(-n2cnc3cc(OC)c(OC)cc32)cc1OCc1ccccc1C(F)(F)F | 3.72 µM | > 25 µM |
| O=C(CC1(O)C(=O)Nc2ccc(Cl)cc21)c1ccc(C(=O)NCC2CCC3(CC2)OOC2(CCCCC2)OO3)cc1 (configuration not stated) | 2.12 µM | 5.66 µM |
| CC1CCc2c(C(=O)Nc3ncc(Cc4cccc([N+](=O)[O-])c4)s3)csc2C1 (configuration not stated) | 0.345 µM | > 100 µM |

| Compound | GI50 | TGI |
| --- | --- | --- |
| O=C(NCCN1CCOCC1)c1cc2c(Oc3ccc(NC(=O)C4(C(=O)Nc5ccc(F)cc5)CC4)cc3)ccnc2[nH]1 | 2.31 µM | 13.6 µM |
| CC[C@H](C)[C@H](NC(=O)CN(C)C)C(=O)N(C)[C@H](C[C@@H](OC(C)=O)c1nc(C(=O)NC23C4C5C2C2C3C4C52C(=O)OC)cs1)C(C)C (some centres not stated) | 0.147 µM | > 33.2 µM |
| COc1cc(OC)c(/C=C/S(=O)(=O)Cc2ccc(OC)c(N)n2)c(OC)c1 | < 0.01 µM | > 100 µM |
| C#CCn1cccc1CNc1ccc(OC)cc1 | 14.2 µM | 60.5 µM |
| CC(=O)NC(C)(C)C(=O)N1CCC[C@H]1C(=O)NC(C)(C)C(=O)N[C@@H](C)C(=O)NC(C)(C)C(=O)NC(C)(C)C(=O)N[C@@H](CCC(N)=O)C(=O)NC(C)(C)C(=O)N[C@H](C(=O)NC(C)(C)C(=O)NCC(=O)N[C@@H](CC(C)C)C(=O)NC(C)(C)C(=O)N1CCC[C@H]1C(=O)N[C@H](C(=O)NC(C)(C)C(=O)NC(C)(C)C(=O)N[C@@H](CCC(N)=O)C(=O)N[C@@H](CCC(N)=O)C(=O)N[C@H](CO)Cc1ccccc1)C(C)C)C(C)C (Ac-[Aib]P[Aib]A[Aib][Aib]Q[Aib]V[Aib]GL[Aib]PV[Aib][Aib]QQ[Phe(ol)]) | 0.209 µM | 2.36 µM |
| COc1cc([C@@H]2c3cc4c(cc3[C@@H](OC3OC5COC(C)OC5C(O)C3O)[C@H]3COC(=O)[C@H]23)OCO4)cc(OC)c1O (some centres not stated) | 2.73 µM and 2.12 µM | 22.3 µM and 18.7 µM |
| CCCCCCCCCC(=O)Oc1ccc(/C(=C(/C)c2ccccc2)c2ccc(OCCN3CCCC3)cc2)cc1 | 7.25 µM | 14.7 µM |
| Cc1cc2nc3c4cc(C#N)ccc4n(CCN(C)C)c3nc2cc1C | 1.33 µM | 3.91 µM |
| COc1cc(/C=N\Nc2ccccc2)ccc1OC(=O)c1ccccc1 | 2.74 µM | 34.8 µM |
| CC(Nc1c(C#N)cnc2ccc(-c3cncc(O)c3)cc12)c1ccccc1 (configuration not stated) | 0.913 µM | 3.43 µM |
| Cc1cnc(C(=O)Nc2nc3ccc(S(=O)(=O)Nc4ccc(C(C)(C)C)cc4)cc3[nH]2)cn1 | 0.27 µM | 1.73 µM |
| ClC/C=C/CSc1ncnc2nc[nH]c12 | > 100 µM | > 100 µM |
| CN1CCN(Cc2ccc(NC(=O)c3cncc(C#Cc4c(N)ncc5ccccc45)c3)cc2C(F)(F)F)CC1 | 0.818 µM | 1.63 µM |
| CNC(=O)c1sc(-n2cnc3cc(OC)c(OC)cc32)cc1OCc1ccccc1C(F)(F)F | > 19 µM | > 25 µM |
| N#Cc1ccc2c(-c3ccnc(NC4CC4)n3)c(-c3ccc(F)cc3)nn2c1 | > 24.2 µM | > 25 µM |
| COc1ccc(/C(=C(\c2ccccc2)[N+](=O)[O-])c2ccc(OCCN3CCCC3)cc2)cc1 | 1.75 µM | 4.27 µM |
| CC/C(=C/c1ccc(OC)cc1)[N+](=O)[O-] | 1.83 µM | 3.63 µM |
| CC(C)(C)n1cc(-c2ccnc(NCCCNS(=O)(=O)c3cccc4ccccc34)c2)c(-c2cccc(O)c2)n1 | 2.04 µM | 5.39 µM |
| Nc1nc(SCC#CCCl)c2[nH]cnc2n1 | 1.88 µM | 6.38 µM |
| O=C(/C=C/c1ccco1)Nc1ncc(Cc2cc(Cl)ccc2Cl)s1 | 0.15 µM | > 46 µM |
